Drawing on PubChem BioAssay (NCI), this text covers TGI and GI50 for 13 compounds.

The structures appear in SMILES notation.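 Each compound was tested at five concentrations against cells in 96-well plates for 48 hours. The concentration for 50% growth inhibition is given as GI50. TGI marks complete inhibition of growth.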 Some results are limits rather than exact numbers.

Test systems include OVCAR-5 ovarian; CCRF-CEM leukemia; DU-145 prostate; LOX IMVI melanoma; 786-0 renal; ACHN renal; OVCAR-8 ovarian; HOP-92 NSCLC; HCC-2998 colon; NCI-H226 lung.
Holding throughout (assay): DTP human tumour cell line panel, 48 h

As a reminder, the TGI is the concentration giving total growth inhibition. As to `O=C1Cc2c(-c3ccccc3)cc(-c3ccc(Cl)cc3)nc2-c2ccccc2N1`, the TGI with OVCAR-5 ovarian was over 83.7 µM; with CCRF-CEM leukemia it was over 53.4 µM; with DU-145 prostate it was over 90.2 µM; in the experiment with LOX IMVI melanoma, 21.9 µM; in the experiment with 786-0 renal it was 3.51 µM; in the experiment on ACHN renal it was 7.36 µM. For the same compound, the TGI in the experiment with OVCAR-8 ovarian was 9.09 µM; in the experiment with HOP-92 NSCLC, 8.72 µM; in the experiment with HCC-2998 colon it was 33.4 µM; in the experiment with NCI-H226 lung, 22 µM.

As to `Clc1cc2ncn(C3CCCO3)c2cc1Cl` (stereo unspecified), the TGI with OVCAR-5 ovarian, with CCRF-CEM leukemia, with DU-145 prostate, in the experiment on LOX IMVI melanoma, with 786-0 renal and in the experiment on ACHN renal was over 100 µM in each case. The TGI in the experiment with OVCAR-8 ovarian, in the experiment with HOP-92 NSCLC, with HCC-2998 colon and with NCI-H226 lung was over 100 µM in each case.

In the case of `CC(=O)CC(=O)N1CCOC1=O`, the TGI in the experiment with OVCAR-5 ovarian, in the experiment with CCRF-CEM leukemia, in the experiment on DU-145 prostate, in the experiment with LOX IMVI melanoma, with 786-0 renal and with ACHN renal was over 10 µM in each case. Moreover, the TGI in the experiment on OVCAR-8 ovarian, in the experiment with HOP-92 NSCLC, in the experiment with HCC-2998 colon and with NCI-H226 lung was over 10 µM each time.

With `Cc1cc(NS(=O)(=O)c2ccc(NC(NC(=O)OC(C)C)(C(F)(F)F)C(F)(F)F)cc2)nc(C)n1`, the TGI in the experiment with OVCAR-5 ovarian, in the experiment with CCRF-CEM leukemia, with DU-145 prostate, in the experiment on LOX IMVI melanoma, in the experiment on 786-0 renal and with ACHN renal was over 100 µM throughout. For the same compound, the TGI in the experiment with OVCAR-8 ovarian, with HOP-92 NSCLC, in the experiment on HCC-2998 colon and with NCI-H226 lung was over 100 µM in each case.

For the compound `CC(C)S1=C2C(=O)CC(C)(C)CC2=Nc2ccccc21` (stereo unspecified), the TGI in the experiment with OVCAR-5 ovarian, in the experiment on CCRF-CEM leukemia, in the experiment on DU-145 prostate, in the experiment on LOX IMVI melanoma, in the experiment on 786-0 renal and in the experiment on ACHN renal was over 100 µM throughout. Also, the TGI in the experiment on OVCAR-8 ovarian, with HOP-92 NSCLC, in the experiment with HCC-2998 colon and in the experiment with NCI-H226 lung was over 100 µM in each case.

As for `N#Cc1c(N)n(-c2nc3ccccc3s2)c(=O)c2cc([N+](=O)[O-])ccc12`, the TGI was over 79 µM in the experiment with OVCAR-5 ovarian; 18.9 µM in the experiment on CCRF-CEM leukemia; over 100 µM in the experiment with DU-145 prostate; 19.7 µM with LOX IMVI melanoma; over 66.3 µM with 786-0 renal; over 72.8 µM in the experiment on ACHN renal. Besides, the TGI with OVCAR-8 ovarian came to 43.9 µM; with HOP-92 NSCLC, 42.3 µM; in the experiment with HCC-2998 colon it was 41.2 µM; in the experiment with NCI-H226 lung, 52.6 µM.

For `Cc1nnc(N)s/c1=N/O`, the TGI with OVCAR-5 ovarian, in the experiment on CCRF-CEM leukemia, in the experiment on DU-145 prostate, in the experiment on LOX IMVI melanoma, in the experiment on 786-0 renal and in the experiment on ACHN renal was over 100 µM each time. In addition, the TGI in the experiment with OVCAR-8 ovarian, with HOP-92 NSCLC, in the experiment with HCC-2998 colon and in the experiment on NCI-H226 lung was over 100 µM each time.

For the compound `C(/Cc1ccc2c(c1)OCO2)=N\NC1=NCCCCN1`, the total growth inhibition concentration (TGI) in the experiment on OVCAR-5 ovarian, in the experiment with CCRF-CEM leukemia, in the experiment with DU-145 prostate, with LOX IMVI melanoma, in the experiment with 786-0 renal and with ACHN renal was over 100 µM throughout. Also, the TGI in the experiment with OVCAR-8 ovarian, in the experiment with HOP-92 NSCLC, in the experiment on HCC-2998 colon and in the experiment with NCI-H226 lung was over 100 µM each time.

On to `N#Cc1c2c(c(Nc3ccc(Cl)cc3)n3c1nc1ccccc13)CCCC2`, for which the TGI in the experiment with OVCAR-5 ovarian, in the experiment with CCRF-CEM leukemia, in the experiment with DU-145 prostate, in the experiment on LOX IMVI melanoma, in the experiment with 786-0 renal and in the experiment with ACHN renal was over 100 µM each time. Besides, the TGI in the experiment with OVCAR-8 ovarian, in the experiment with HOP-92 NSCLC, in the experiment with HCC-2998 colon and in the experiment on NCI-H226 lung was over 100 µM each time.

For orientation: GI50 means the concentration at which growth is held to half of that of the control. As for `NNC(=O)COc1nc(-c2cccs2)nc2ccc(I)cc12`, the TGI in the experiment on OVCAR-5 ovarian is over 100 µM; in the experiment on CCRF-CEM leukemia, 88.4 µM; with DU-145 prostate, 50.7 µM; in the experiment on LOX IMVI melanoma, 36.9 µM; in the experiment on 786-0 renal, 78.8 µM; with ACHN renal, 74.2 µM. Further, the TGI in the experiment on OVCAR-8 ovarian was over 100 µM; in the experiment on HOP-92 NSCLC it was 61.8 µM; with HCC-2998 colon, 63.9 µM; in the experiment on NCI-H226 lung, 83.9 µM. In addition, in the experiment on CCRF-CEM leukemia, the GI50 is 20 µM.

Regarding `CC(=O)OC1C(C)OC(OC2C[C@](O)(C(C)=O)Cc3c(O)c4c(c(O)c32)C(=O)c2ccccc2C4=O)C(F)C1OC(C)=O` (stereo partly specified), the TGI came to 5.45 µM with OVCAR-5 ovarian; 1.51 µM with CCRF-CEM leukemia; 4.59 µM in the experiment with DU-145 prostate; 3.65 µM in the experiment with LOX IMVI melanoma; 2.36 µM with 786-0 renal; 0.704 µM with ACHN renal. The TGI with OVCAR-8 ovarian came out at 10.7 µM; in the experiment on HOP-92 NSCLC, 6.52 µM; in the experiment with HCC-2998 colon, 16.6 µM; with NCI-H226 lung it was 2.86 µM.

For `O=C1c2sccc2C(=O)c2c(CO)csc21`, the TGI was over 53 µM in the experiment on OVCAR-5 ovarian; over 51.6 µM in the experiment with CCRF-CEM leukemia; 9.37 µM in the experiment with DU-145 prostate; 10.6 µM with LOX IMVI melanoma; 18.5 µM with 786-0 renal; 12.2 µM in the experiment with ACHN renal. Further, the TGI in the experiment with OVCAR-8 ovarian was found to be 12.4 µM; in the experiment with HOP-92 NSCLC it was 26.1 µM; in the experiment with HCC-2998 colon it was 13.7 µM; with NCI-H226 lung, 15 µM.

For `CCc1n[nH]c(=O)n1-c1ccncc1`, the TGI with OVCAR-5 ovarian, with CCRF-CEM leukemia, with DU-145 prostate, with LOX IMVI melanoma, in the experiment on 786-0 renal and in the experiment on ACHN renal was over 100 µM each time. The TGI with OVCAR-8 ovarian, in the experiment with HOP-92 NSCLC, in the experiment with HCC-2998 colon and in the experiment with NCI-H226 lung was over 100 µM in each case.
